The values that follow come from patent US20240165226A1, “COMBINATION TREATMENT OF CD38-EXPRESSING TUMORS” (GENMAB A/S, priority 2006, published 2024).

Assay [1] concerns Daudi-luc cells. In words: ADCC (51Cr release) of Daudi-luc cells. It is filed as cell-based. Particulars: for lysis of Daudi cells by ADCC: in words. On the procedure: (§1) Daudi-luc cells, fresh multiple myeloma tumor cells, fresh Plasma Cell Leukemia tumor cells and JK6L and AMO-1 multiple myeloma cells were collected (5×10^6 cells) in RPMI^++ (RPMI 1640 culture medium supplemented with 10% cosmic calf serum (HyClone, Logan, UT, USA)), to which 100 μCi ^51Cr (Chromium-51; Amersham Biosciences Europe GmbH, Roosendaal, The Netherlands) was added, and the mixture was incubated in a 37° C. water bath for 1 hr. After washing of the cells (twice in PBS, 1500 rpm, 5 min), the cells were resuspended in RPMI^++ and counted by trypan blue exclusion. Cells were brought at concentration of 1×10^5 cells/ml.
(§2) Fresh peripheral blood mononuclear cells (healthy volunteers, UMC Utrecht, Utrecht, The Netherlands) were isolated from 40 ml of heparin blood by Ficoll (Bio Whittaker; lymphocyte separation medium, cat 17-829E) according to the manufacturer's instructions. After resuspension of cells in RPMI^++, cells were counted by trypan blue exclusion and brought at concentration of 1×10^7 cells/ml.
50 μl of ^51Cr-labeled targets cells were pipetted into 96-well plates, and 50 μl of antibody was added, diluted in RPMI^++ (final concentrations 10, 1, 0.1, 0.01 μg/ml). Cells were incubated (RT, 15 min), and 50 μl effector cells were added, resulting in an effector to target ratio of 100:1 (for determination of maximal lysis, 100 μl 5% Triton-X100 was added instead of effector cells; for determination of spontaneous lysis, 50 μl target cells and 100 μl RPMI++ were used). Cells were spun down (500 rpm, 5 min), and incubated (37° C., 5% CO2, 4 hr). After spinning down cells (1500 rpm, 5 min), 100 μl of supernatant was harvested into micronic tubes, and counted in gamma counter. The percentage specific lysis was calculated as follows:
(cpm sample−cpm target cells only)/(cpm maximal lysis−cpm target cells only)
wherein cpm is counts per minute.

For assay [2], the system named is fresh plasma cell leukemia tumor cells. Description: ADCC set up II, plasma cell leukemia tumor cells. It is filed as cell-based, human. Particulars: in words. On the procedure:
Human blood from human volunteers (university Erlangen, Erlangen, Germany) was diluted twice in RPMI 1640 and blood cells were layered on Ficoll (Lymphocyte Separation Medium […], 710 g, RT, 20 min; BioWhittaker, Cambrex Bio Science Verviers, Verviers, Belgium, cat. 17-829E, lot no. 0148 32). Peripheral blood mononuclear cells (MNCs) were collected from the interphase, washed and resuspended in RPMI 1640 culture medium supplemented with 10% FCS, 2 mM L-glutamine, 5 U/ml penicillin, 50 μg/ml streptomycin (all derived from BioWhittaker) to which 25 mM HEPES (BioWhittaker) was added.
Target B-cells (fresh plasma cell leukemia tumor cells, JK6L and AMO-1 B-cell lines, obtained from Dr. T. Valerius, University of Erlangen, Erlangen, Germany) were labeled with 20 μCi ^51Cr (Amersham Biosciences, Uppsala, Sweden) for 2 hours. After extensive washing in RPMI-10, cells were adjusted to 1×10^5 cells/ml. […] After incubation (3 hr, 37° C.), assays were stopped by centrifugation, and 51Cr release from triplicates was measured in counts per minute (cpm) in a scintillation counter. Percentage of cellular cytotoxicity was calculated using the following formula: […]
with maximal ^51Cr release determined by adding perchloric acid (3% final concentration) to target cells, and basal release was measured in the absence of sensitizing antibodies and effector cells.

In assay [3] the test system is Daudi-luc cells. Description: Binding to Daudi-luc cells by flow cytometry. The note with it: for binding to Daudi-luc cells: in words. Here is the method:
After harvesting and counting, Daudi-luc cells, CHO cells transfected with CD38 and control CHO cells were resuspended in PBS (1×10^6 cells/ml). Then, cells were put in 96-well V-bottom plates (100 μl/well) and washed twice in PBS-BSA (PBS supplemented with 0.1% BSA and 0.02% Na-azide). Thereafter, 50 μl antibody solution in PBS-BSA was added to the cells (4° C., 30 min). After washing three times in PBS-BSA, 50 μl (1:400 dilution) of rabbit anti-human IgG-FITC in PBS-BSA was added (4° C. in the dark, 30 min). Cells were washed three times and specific binding of CD38-antibodies to CHO-CD38 and Daudi-luc cells was detected by flow cytometry. HuMab-KLH (a human monoclonal antibody against KLH (keyhole limpet haemocyanin) generated by Genmab B.V., Utrecht, The Netherlands by use of the immunization protocols described elsewhere herein) was used as a control. […] No binding to control CHO cells is observed (data not shown).

Assay [4] concerns PBMCs. Description: Induction of proliferation of PBMC. It is filed as cell-based, human. The note with it: 1.1-30 μg/ml, 3H-thymidine incorporation, 10 donors. On the procedure: -003, -005 and -024 were tested in an assay essentially as described in Ausiello et al., Tissue antigens 56, 538-547 (2000). Briefly, PBMCs from healthy donors were cultured at 1×10^5 cells/well in flat bottom 96-well plates in the presence of antibodies (final concentration: 1.1-3.3-10-30 μg/ml) in 200 μl RPMI^++. Stimulation of cells with IL-15 (at 333 ng/ml; Amgen Inc., Thousand Oaks, CA, USA) was used as positive control. After a 4 day incubation at 37° C., 30 μl ^3H-thymidine (16.7 μCi/ml) was added, and culture was continued O/N. ^3H-thymidine incorporation was assessed using a […] (Packard Instruments, Meriden, DT, USA), according to the manufacturer's instructions. Data are shown as the mean cpm (±SEM) of PBMCs obtained from 10 donors.
On the technique in general: Uptake of a labelled nucleoside into DNA is a usual measure of proliferation.

Assay [5] deals with PBMCs. Description: Induction of IL-6 release by PBMC. The note with it: 20 μg/ml antibody and 10 ng/ml LPS, 7 donors. Type of assay: cell-based, human. On the procedure: -003, -005 and -024 were tested in an assay as described in Ausiello et al., Tissue antigens 56, 538-547 (2000). Briefly, PBMCs were cultured at 1×10^6 cells/well in 48-well plates in the presence of 20 μg/ml of antibodies and 10 ng/ml LPS (Sigma-Aldrich Chemie, Zwijndrecht, The Netherlands) in 500 μl RPMI^++. After an O/N incubation at 37° C., supernatant was harvested and stored at −20° C. The IL-6 concentration was assessed by ELISA (IL-6 ELISA kit, U-CyTech Biosciences, Utrecht, The Netherlands) according to the manufacturer's instructions. Data are shown mean concentration in pg/ml (±SEM) from 7 donors.

The test system of assay [6] is fresh multiple myeloma tumor cells. Description: ADCC (51Cr release) of fresh multiple myeloma tumor cells. Type of assay: cell-based, human. Particulars: in words. Here is the method: as §1, §2
50 μl of ^51Cr-labeled targets cells were pipetted into 96-well plates, and 50 μl of antibody was added, diluted in RPMI^++ (final concentrations 10, 1, 0.1, 0.01 μg/ml). […] After spinning down cells (1500 rpm, 5 min), 100 μl of supernatant was harvested into micronic tubes, and counted in gamma counter. The percentage specific lysis was calculated as follows: […]

Entries after “also recorded” stand apart in the source; their conditions may differ.

For the molecule “-005: human monoclonal IgG1 anti-CD38 antibody, VL region SEQ ID No:12 and VH region SEQ ID No:17”, in the assay with Daudi-luc cells [1] (ADCC, Daudi target cells, n=5), the “Maximal lysis (%)” value worked out at 49.2%. In addition, the “EC50 Daudi-luc” value with Daudi-luc cells [1] (ADCC, Table 2 first column, effector to target ratio 100:1) is 0.0045 µg/mL; with Daudi-luc cells [3] (binding, flow cytometry), 0.09 µg/mL. Besides, the “ADCC performance compared to rituximab” value in the assay with Daudi-luc cells [1] (Daudi-luc cells) was “slightly better than rituximab”. Besides, the “lysis of Daudi cells by ADCC” value in the assay on Daudi-luc cells [1] is reported as “induce lysis by ADCC; also recorded: mediate lysis”. In addition, the “ADCC of plasma cell leukemia primary tumor cells” value in assay [2] was “induce ADCC”. Further, the “binding to Daudi-luc cells” value with Daudi-luc cells [3] is “bind”. In the assay with PBMCs [4], the “proliferation of PBMCs” value is “do not induce significant proliferation”. The “release of IL-6” value with PBMCs [5] was “does not induce release of significant IL-6 levels”. Moreover, in assay [6], the “ADCC of fresh multiple myeloma tumor cells” value is on record as “ADCC is induced”.

B1: -024: human monoclonal IgG1 anti-CD38 antibody, VL region SEQ ID No:22 and VH region SEQ ID No:27 (antibody, listed as Homo sapiens, V domains shown)
VH: EVQLVQSGAEVKKPGESLKISCKGSGYSFSNYWIGWVRQMPGKGLEWMGIIYPHDSDARYSPSFQGQVTFSADKSISTAYLQWSSLKASDTAMYYCARHVGWGSRYWYFDLWGRGTLVTVSS
VL: EIVLTQSPATLSLSPGERATLSCRASQSVSSYLAWYQQKPGQAPGLLIYDASNRASGIPARFSGSGSGTDFTLTISSLEPEDFAVYYCQQRSNWPLTFGGGTKVEIK
For the molecule B1, in the assay on Daudi-luc cells [1], the “lysis of Daudi cells by ADCC” value is “induce lysis by ADCC”. For the same molecule, the “ADCC of plasma cell leukemia primary tumor cells” value in assay [2] is on record as “induce ADCC”. Also, in the assay with Daudi-luc cells [3], the “binding to Daudi-luc cells” value was “bind”. Besides, the “proliferation of PBMCs” value in the assay with PBMCs [4] is given as “did not induce significant proliferation”. The “release of IL-6” value in the assay with PBMCs [5] is “did not induce release of significant IL-6 levels”. Besides, the “ADCC of fresh multiple myeloma tumor cells” value in assay [6] was “ADCC is induced”.
